Several values for one entry are separate records, joined by “and”; a condition that tells them apart may be missing. Equal values may be shown once. Toxic doses and inconclusive results are not listed. Rule as the data show it: active = T/C of 150% or more; inactive = T/C below 125%.
Tested on: L1210 leukemia ip in BDF1 mice, survival T/C
Test: NCI In Vivo Anticancer Drug Screen. Data for tumor model L1210 Leukemia (intraperitoneal) in B6D2F1 (BDF1) mice
Details: endpoint: mean survival time, higher = longer survival
Summary of the method: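 Ratio derived from survival: compound-dosed mice over vehicle-dosed mice, all bearing a transplantable tumor.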

[1] = dose: 100.0 mg/kg/injection, schedule: Q04DX002 (ip), vehicle: Klucel (hydroxypropylcellulose) (HPC)
[2] = dose: 75.0 mg/kg/injection, schedule: Q01DX001 (ip), vehicle: saline
[3] = dose: 150.0 mg/kg/injection, schedule: Q01DX001 (ip), vehicle: saline
[4] = dose: 300.0 mg/kg/injection, schedule: Q01DX001 (ip), vehicle: saline
[5] = dose: 400.0 mg/kg/injection, schedule: Q01DX009 (ip), vehicle: saline with Tween-80
[6] = dose: 100.0 mg/kg/injection, schedule: Q01DX009 (ip), vehicle: saline with Tween-80
[7] = dose: 200.0 mg/kg/injection, schedule: Q01DX009 (ip), vehicle: saline with Tween-80
[8] = dose: 100.0 mg/kg/injection, schedule: Q04DX003 (ip), vehicle: carboxymethylcellulose (CMC)
[9] = dose: 100.0 mg/kg/injection, schedule: Q01DX009 (ip), vehicle: Klucel (hydroxypropylcellulose) (HPC)
[10] = dose: 100.0 mg/kg/injection, schedule: Q04DX003 (ip), vehicle: Klucel (hydroxypropylcellulose) (HPC)
[11] = dose: 200.0 mg/kg/injection, schedule: Q01DX009 (ip), vehicle: Klucel (hydroxypropylcellulose) (HPC)
[12] = dose: 200.0 mg/kg/injection, schedule: Q04DX003 (ip), vehicle: Klucel (hydroxypropylcellulose) (HPC)
[13] = dose: 400.0 mg/kg/injection, schedule: Q01DX009 (ip), vehicle: Klucel (hydroxypropylcellulose) (HPC)
[14] = dose: 400.0 mg/kg/injection, schedule: Q04DX003 (ip), vehicle: Klucel (hydroxypropylcellulose) (HPC)
[15] = dose: 50.0 mg/kg/injection, schedule: Q01DX001 (ip), vehicle: carboxymethylcellulose (CMC)
[16] = dose: 100.0 mg/kg/injection, schedule: Q01DX001 (ip), vehicle: carboxymethylcellulose (CMC)
[17] = dose: 100.0 mg/kg/injection, schedule: Q01DX001 (ip), vehicle: saline

Measured: T/C

NC(=O)NCN1C(=O)c2ccccc2C1=O
inactive: [1] 100 % of control | dose: 200.0 mg/kg/injection, schedule: Q04DX002 (ip), vehicle: Klucel (hydroxypropylcellulose) (HPC) 94 % of control | dose: 400.0 mg/kg/injection, schedule: Q04DX002 (ip), vehicle: Klucel (hydroxypropylcellulose) (HPC) 90 % of control

ClC1=C2C=CC=CC2C(Cl)(c2ccccc2)C2C1=C(Cl)c1ccccc1C2(Cl)c1ccccc1 (configuration not stated)
inactive: [2] 95 % of control | [3] 97 % of control | [4] 90 % of control

O=C(Nc1ccc(Cl)cc1)O/N=C/c1ccccn1
inactive: dose: 12.5 mg/kg/injection, schedule: Q01DX009 (ip), vehicle: saline with Tween-80 111 % of control | dose: 25.0 mg/kg/injection, schedule: Q01DX009 (ip), vehicle: saline with Tween-80 97 % of control | dose: 50.0 mg/kg/injection, schedule: Q01DX009 (ip), vehicle: saline with Tween-80 94 % of control | dose: 100.0 mg/kg/injection, schedule: Q01DX001 (ip), vehicle: saline with Tween-80 97 % of control | dose: 200.0 mg/kg/injection, schedule: Q01DX001 (ip), vehicle: saline with Tween-80 109 % of control | dose: 400.0 mg/kg/injection, schedule: Q01DX001 (ip), vehicle: saline with Tween-80 101 % of control | [5] 88 % of control

CN(C)C(=O)Sc1cc(Cl)c(Cl)cc1Cl
inactive: dose: 87.0 mg/kg/injection, schedule: Q01DX001 (ip), vehicle: Klucel (hydroxypropylcellulose) (HPC) 92 % of control | dose: 175.0 mg/kg/injection, schedule: Q01DX001 (ip), vehicle: Klucel (hydroxypropylcellulose) (HPC) 92 % of control | dose: 350.0 mg/kg/injection, schedule: Q01DX001 (ip), vehicle: Klucel (hydroxypropylcellulose) (HPC) 94 % of control

NC1=CCNN1
inactive: [2] 106 % of control | [3] 93 % of control | [4] 94 % of control

O=C(/C=C/c1ccccc1)OCc1ccccc1CN1C=CON1
inactive: dose: 25.0 mg/kg/injection, schedule: Q04DX002 (ip), vehicle: Klucel (hydroxypropylcellulose) (HPC) 115 % of control | dose: 50.0 mg/kg/injection, schedule: Q04DX002 (ip), vehicle: Klucel (hydroxypropylcellulose) (HPC) 105 % of control | [1] 105 % of control

OCC1OC(n2ncc3ccccc32)C(O)C1O (configuration not stated)
inactive: dose: 50.0 mg/kg/injection, schedule: Q01DX005 (ip), vehicle: other 109 % of control | dose: 100.0 mg/kg/injection, schedule: Q01DX005 (ip), vehicle: other 105 % of control | dose: 200.0 mg/kg/injection, schedule: Q01DX005 (ip), vehicle: other 98 % of control

CCOC(=O)CNC(=O)Nc1ccc(NC(C)=O)cc1
inactive: [6] 94 % of control | [7] 94 % of control | [5] 88 % of control

CCC1(C(C)=O)CN2CCc3cc(OC)c(OC)cc3C2N2CCc3ccc(OC)c(OC)c3C21 (configuration not stated)
inactive: [8] 95 % of control | dose: 200.0 mg/kg/injection, schedule: Q04DX003 (ip), vehicle: carboxymethylcellulose (CMC) 98 % of control | dose: 400.0 mg/kg/injection, schedule: Q04DX003 (ip), vehicle: carboxymethylcellulose (CMC) 95 % of control

CC(C)=CCC1=C(O)C(C)=CC(=O)C1=O
inactive: dose: 100.0 mg/kg/injection, schedule: Q01DX001 (ip), vehicle: water 97 % of control | dose: 200.0 mg/kg/injection, schedule: Q01DX001 (ip), vehicle: water 94 % of control | dose: 400.0 mg/kg/injection, schedule: Q01DX001 (ip), vehicle: water 97 % of control

C(=C\c1ccccc1)/Cc1ccccc1
inactive: [9] 97 % of control | [10] 101 % of control | [11] 95 % of control | [12] 111 % of control | [13] 103 % of control | [14] 92 % of control

CCOc1cc(C=Nc2cc(Br)c(OC)c(Br)c2)ccc1N(CCCl)CCCl
inactive: dose: 4.0 mg/kg/injection, schedule: Q01DX009 (ip), vehicle: carboxymethylcellulose (CMC) 106 % of control | dose: 7.0 mg/kg/injection, schedule: Q01DX009 (ip), vehicle: carboxymethylcellulose (CMC) 115 % of control | dose: 8.9 mg/kg/injection, schedule: Q01DX001 (ip), vehicle: carboxymethylcellulose (CMC) 122 % of control | dose: 11.0 mg/kg/injection, schedule: Q01DX009 (ip), vehicle: carboxymethylcellulose (CMC) 109 % of control | dose: 17.0 mg/kg/injection, schedule: Q01DX009 (ip), vehicle: carboxymethylcellulose (CMC) 123 % of control | dose: 133.0 mg/kg/injection, schedule: Q01DX001 (ip), vehicle: carboxymethylcellulose (CMC) 122 % of control

Cc1nc(-c2ccc(N=Cc3ccc(N(CCCOS(C)(=O)=O)CCCOS(C)(=O)=O)cc3C)cc2)c(C)s1
inactive: [6] 100 % of control | [7] 93 % of control

O=[N+]([O-])c1ccc(Oc2c(Cl)cccc2Cl)cc1
inactive: [10] 96 % of control | [12] 95 % of control | [14] 96 % of control

CCC1CC2c3cc(OC)c(OC)cc3CCN2CC1(O)c1ccccc1 (configuration not stated)
inactive: dose: 25.0 mg/kg/injection, schedule: Q01DX001 (ip), vehicle: carboxymethylcellulose (CMC) 92 % of control | dose: 25.0 mg/kg/injection, schedule: Q04DX003 (ip), vehicle: carboxymethylcellulose (CMC) 97 % of control | [15] 95 % of control | dose: 50.0 mg/kg/injection, schedule: Q04DX003 (ip), vehicle: carboxymethylcellulose (CMC) 97 % of control | [16] 103 % of control and 109 % of control | [8] 100 % of control

COC(=O)c1cn(C2OC(CO)C(O)C2O)c2ncnc(N)c12 (configuration not stated)
inactive: dose: 20.0 mg/kg/injection, schedule: Q01DX001 (ip), vehicle: water 108 % of control | dose: 40.0 mg/kg/injection, schedule: Q01DX001 (ip), vehicle: water 89 % of control

CCOC(=O)/C(=C/c1ccc(OC)c(OC)c1)P(=O)(OCC)OCC
inactive: dose: 50.0 mg/kg/injection, schedule: Q01DX001 (ip), vehicle: saline 101 % of control | [17] 95 % of control

O=C(Cc1ccccc1)OC1CC2CC1C1CCCC21 (configuration not stated)
inactive: [15] 96 % of control | [16] 98 % of control | dose: 200.0 mg/kg/injection, schedule: Q01DX001 (ip), vehicle: carboxymethylcellulose (CMC) 104 % of control | dose: 400.0 mg/kg/injection, schedule: Q01DX001 (ip), vehicle: carboxymethylcellulose (CMC) 96 % of control

O=C(/C=C/c1ccccc1)Nc1ccc(Cl)cc1C(=O)c1ccccc1
inactive: [9] 102 % of control | [11] 97 % of control | [13] 94 % of control

S=C([SH2+])[SH2+].S=C([SH2+])[SH2+].[Pt+2].c1ccc(C[P+](c2ccccc2)(c2ccccc2)c2ccccc2)cc1
inactive: dose: 12.5 mg/kg/injection, schedule: Q01DX009 (ip), vehicle: saline 96 % of control | dose: 25.0 mg/kg/injection, schedule: Q01DX009 (ip), vehicle: saline 97 % of control

Cc1nonc1C(=O)O
inactive: dose: 100.0 mg/kg/injection, schedule: Q04DX002 (ip), vehicle: saline 102 % of control | dose: 200.0 mg/kg/injection, schedule: Q04DX002 (ip), vehicle: saline 87 % of control | dose: 400.0 mg/kg/injection, schedule: Q04DX002 (ip), vehicle: saline 98 % of control

CCOC(=O)C1CC(=O)C(C(=O)OCC)CC1=O (configuration not stated)
inactive: [17] 101 % of control | dose: 200.0 mg/kg/injection, schedule: Q01DX001 (ip), vehicle: saline 95 % of control | dose: 400.0 mg/kg/injection, schedule: Q01DX001 (ip), vehicle: saline 95 % of control

NCCCCC(N)C(=O)NCCCCCCN(CCCCCCNC(=O)C(N)CCCCN)C(=O)C(N)CCCCN (configuration not stated)
inactive: [17] 92 % of control

Reference: PubChem BioAssay AID248 (DTP/NCI, 2004)
